Measured values: the NIST ThermoML archive (doi:10.1016/j.tca.2012.02.005)
Numbers after ± are expanded uncertainties.

test: activity coefficient (dimensionless); of the first substance listed, at infinite dilution; xn = mol fraction of the nth substance listed; settings: 298.15 K; 101 kPa; Liquid; Chromatography; x1 = 0

SMILES	activity coefficient
Cc1cccc(C)n1 [2,6-dimethylpyridine] + CO	0.94 ± 0.07
Cc1ccccn1 [2-methylpyridine] + CO	0.75 ± 0.07
Cc1cccnc1 [3-methylpyridine] + CO	0.82 ± 0.07
Cc1cccnc1 [3-methylpyridine] + c1ccccc1	0.96 ± 0.12
Cc1ccncc1 [4-methylpyridine] + CO	1 ± 0.12
NC1CCCCC1 [cyclohexylamine] + CO	4.81 ± 0.47
NC1CCCCC1 [cyclohexylamine] + c1ccccc1	6.43 ± 1
CCNCC [diethylamine] + CO	0.33 ± 0.05
CO [methanol] + C1CCNCC1	0.43 ± 0.03
CO [methanol] + CC(C)(C)N	0.29 ± 0.05
CO [methanol] + CCC(C)N	0.38 ± 0.05
CO [methanol] + CCCCCCN	0.38 ± 0.05
CO [methanol] + CCCCN	0.35 ± 0.07
CO [methanol] + CCCNCCC	0.69 ± 0.05
CO [methanol] + CCNCC	0.51 ± 0.03
CO [methanol] + Cc1cccc(C)n1	0.61 ± 0.1
CO [methanol] + Cc1ccccn1	0.79 ± 0.1
CO [methanol] + Cc1cccnc1	0.94 ± 0.12
CO [methanol] + Cc1ccncc1	0.68 ± 0.1
CO [methanol] + NC1CCCCC1	0.33 ± 0.03
c1ccncc1 [pyridine] + CO	1.2 ± 0.19
CCCN(CCC)CCC [tripropylamine] + CCCCCCCCCCCCCCCC	1.01
CCCN(CCC)CCC [tripropylamine] + CO	8.79 ± 1.6
CCCN(CCC)CCC [tripropylamine] + c1ccccc1	2.79 ± 0.62

Second part, the compound after the results:

activity coefficient	SMILES
0.46 ± 0.07	CCCCN [1-butanamine] + CO
13.7 ± 2.3	CCCCCCN [1-hexanamine] + CO
16.2 ± 3.1	CCCCCCN [1-hexanamine] + c1ccccc1
0.75 ± 0.1	CCC(C)N (centres undefined) [2-butanamine] + CO
1.15 ± 0.17	CCC(C)N (centres undefined) [2-butanamine] + c1ccccc1
0.25 ± 0.05	CC(C)(C)N [2-methyl-2-propanamine] + CO
1.32 ± 0.21	CC(C)(C)N [2-methyl-2-propanamine] + c1ccccc1
0.91 ± 0.12	CCCNCCC [dipropylamine] + CO
1.48 ± 0.15	CCCNCCC [dipropylamine] + c1ccccc1
1.28 ± 0.1	CCN(CC)CC [triethylamine] + c1ccccc1
